Consider 25 compounds from patent publication US20240398784A1, “C-LINKED ISOQUINOLINE AMIDES AS LRRK2 INHIBITORS, PHARMACEUTICAL COMPOSITIONS, AND USES THEREOF” (Merck Sharp & Dohme LLC, priority 2021, published 2024).

The assay deals with LRRK2 G2019S (Homo sapiens, UniProt Q5S007, G2019S). Kind of assay: LRRK2 G2019S Km ATP LanthaScreen assay. The class given is biochemical. The settings on record: read-out: LRRK2 pIC50 (converted). In general terms: In TR-FRET formats the signal depends on donor and acceptor labels being close together.
Chain of LRRK2 G2019S (Q5S007 whole entry G2019S): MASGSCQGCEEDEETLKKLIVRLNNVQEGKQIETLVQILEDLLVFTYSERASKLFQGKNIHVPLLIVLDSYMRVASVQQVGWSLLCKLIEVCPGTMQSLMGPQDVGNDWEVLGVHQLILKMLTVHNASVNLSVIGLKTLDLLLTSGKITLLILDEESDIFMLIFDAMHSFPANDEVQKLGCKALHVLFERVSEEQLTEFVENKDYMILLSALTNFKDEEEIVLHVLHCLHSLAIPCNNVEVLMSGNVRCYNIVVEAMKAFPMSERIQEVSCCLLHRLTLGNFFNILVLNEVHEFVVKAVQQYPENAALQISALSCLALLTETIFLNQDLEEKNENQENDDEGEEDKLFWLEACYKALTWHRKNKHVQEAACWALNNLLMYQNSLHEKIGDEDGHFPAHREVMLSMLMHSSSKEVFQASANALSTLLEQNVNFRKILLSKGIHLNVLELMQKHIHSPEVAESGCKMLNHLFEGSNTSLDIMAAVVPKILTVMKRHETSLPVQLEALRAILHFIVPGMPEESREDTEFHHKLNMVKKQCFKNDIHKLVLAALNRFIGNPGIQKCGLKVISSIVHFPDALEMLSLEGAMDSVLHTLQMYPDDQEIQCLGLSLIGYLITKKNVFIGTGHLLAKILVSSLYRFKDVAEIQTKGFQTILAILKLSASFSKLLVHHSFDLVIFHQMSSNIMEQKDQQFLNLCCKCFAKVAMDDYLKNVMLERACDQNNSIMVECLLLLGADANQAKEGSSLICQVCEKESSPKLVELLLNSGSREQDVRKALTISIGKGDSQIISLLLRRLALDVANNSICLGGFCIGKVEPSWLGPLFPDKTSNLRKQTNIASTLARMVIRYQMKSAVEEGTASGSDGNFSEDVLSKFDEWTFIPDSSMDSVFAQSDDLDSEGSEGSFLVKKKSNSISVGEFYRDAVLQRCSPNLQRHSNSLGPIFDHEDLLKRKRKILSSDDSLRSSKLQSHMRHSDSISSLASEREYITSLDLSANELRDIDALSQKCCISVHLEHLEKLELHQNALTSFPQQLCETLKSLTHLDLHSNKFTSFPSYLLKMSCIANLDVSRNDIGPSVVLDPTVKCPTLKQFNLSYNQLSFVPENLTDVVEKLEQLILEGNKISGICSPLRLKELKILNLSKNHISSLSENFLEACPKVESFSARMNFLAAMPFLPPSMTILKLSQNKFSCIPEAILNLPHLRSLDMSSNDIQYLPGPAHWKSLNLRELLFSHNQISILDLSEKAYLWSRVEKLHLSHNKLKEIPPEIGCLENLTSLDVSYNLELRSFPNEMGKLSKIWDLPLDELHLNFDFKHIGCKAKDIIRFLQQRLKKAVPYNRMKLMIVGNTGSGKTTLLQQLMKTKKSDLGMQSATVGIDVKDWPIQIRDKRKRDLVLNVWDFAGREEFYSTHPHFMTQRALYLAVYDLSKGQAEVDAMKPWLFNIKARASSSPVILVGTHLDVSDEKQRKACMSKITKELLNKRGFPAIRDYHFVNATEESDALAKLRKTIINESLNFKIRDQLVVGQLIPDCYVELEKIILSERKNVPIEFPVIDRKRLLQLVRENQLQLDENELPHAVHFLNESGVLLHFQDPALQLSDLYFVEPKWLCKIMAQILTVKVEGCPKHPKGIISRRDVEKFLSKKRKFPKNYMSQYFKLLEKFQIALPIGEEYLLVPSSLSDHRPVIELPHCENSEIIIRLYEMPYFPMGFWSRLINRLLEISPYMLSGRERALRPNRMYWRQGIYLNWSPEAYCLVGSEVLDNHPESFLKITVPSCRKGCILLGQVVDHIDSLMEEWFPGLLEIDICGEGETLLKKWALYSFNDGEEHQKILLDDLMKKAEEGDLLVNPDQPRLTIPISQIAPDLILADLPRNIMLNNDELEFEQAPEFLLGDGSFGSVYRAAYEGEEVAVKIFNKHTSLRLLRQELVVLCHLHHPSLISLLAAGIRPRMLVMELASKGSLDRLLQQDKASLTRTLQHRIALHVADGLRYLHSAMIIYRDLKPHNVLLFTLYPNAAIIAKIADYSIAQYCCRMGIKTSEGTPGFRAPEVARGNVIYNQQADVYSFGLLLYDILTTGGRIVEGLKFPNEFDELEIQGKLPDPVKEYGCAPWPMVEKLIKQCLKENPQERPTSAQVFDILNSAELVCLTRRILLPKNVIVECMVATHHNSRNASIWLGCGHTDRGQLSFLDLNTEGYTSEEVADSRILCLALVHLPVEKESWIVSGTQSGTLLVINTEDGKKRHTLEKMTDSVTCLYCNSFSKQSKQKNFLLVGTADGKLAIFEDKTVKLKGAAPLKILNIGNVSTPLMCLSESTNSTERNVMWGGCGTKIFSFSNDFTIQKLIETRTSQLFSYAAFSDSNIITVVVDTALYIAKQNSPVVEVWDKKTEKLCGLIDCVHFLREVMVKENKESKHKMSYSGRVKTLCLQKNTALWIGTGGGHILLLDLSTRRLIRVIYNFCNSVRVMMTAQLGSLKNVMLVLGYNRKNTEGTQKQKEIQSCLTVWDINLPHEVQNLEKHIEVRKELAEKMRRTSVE
With `CC1(N2CCC(c3cc4cc(NC(=O)C5C6CCOCC65)ncc4cc3Cl)CC2)COCC1O` (single isomer, unassigned) [Ex-4.34, N-(7-chloro-6-(1-(4-hydroxy-3-methyltetrahydrofuran-3-yl)piperidin-4-yl)isoquinolin-3-yl)-3-oxabicyclo[4.1.0]heptane-7-carboxamide], the IC50 is 1.38 nM. For the compound `CC1(N2CCC(c3cc4cc(NC(=O)C5CC5c5cncnc5)ncc4cc3Cl)CC2)COCC1O` (single isomer, unassigned) [Ex-4.35, N-(7-chloro-6-(1-(4-hydroxy-3-methyltetrahydrofuran-3-yl)piperidin-4-yl)isoquinolin-3-yl)-2-(pyrimidin-5-yl)cyclopropane-1-carboxamide], the IC50 is 0.692 nM. As for `CC1(N2CCC(c3cc4cc(NC(=O)C5CC5c5cncnc5)ncc4cc3Cl)CC2)COCC1O` (single isomer, unassigned) [Ex-4.36, N-(7-chloro-6-(1-(4-hydroxy-3-methyltetrahydrofuran-3-yl)piperidin-4-yl)isoquinolin-3-yl)-2-(pyrimidin-5-yl)cyclopropane-1-carboxamide], the IC50 is 0.562 nM. For the compound `Cn1ncc(C2CC2C(=O)Nc2cc3cc(C4CCN(C5(C)COCC5O)CC4)c(Cl)cc3cn2)c1C(F)(F)F` (single isomer, unassigned) [Ex-4.37, N-(7-chloro-6-(1-(4-hydroxy-3-methyltetrahydrofuran-3-yl)piperidin-4-yl)isoquinolin-3-yl)-2-(1-methyl-5-(trifluoromethyl)-1H-pyrazol-4-yl)cyclopropane-1-carboxamide], the IC50 was 0.0813 nM.

As to `CC1(N2CCC(c3cc4cc(NC(=O)C5CC5c5cc(F)ccn5)ncc4cc3Cl)CC2)COCC1O` (single isomer, unassigned) [Ex-4.39, N-(7-chloro-6-(1-(4-hydroxy-3-methyltetrahydrofuran-3-yl)piperidin-4-yl)isoquinolin-3-yl)-2-(4-fluoropyridin-2-yl)cyclopropane-1-carboxamide], the IC50 was 135 nM. `CC1(N2CCC(c3cc4cc(NC(=O)C5CC5c5cc(F)ccn5)ncc4cc3Cl)CC2)COCC1O` (single isomer, unassigned) [Ex-4.40, N-(7-chloro-6-(1-(4-hydroxy-3-methyltetrahydrofuran-3-yl)piperidin-4-yl)isoquinolin-3-yl)-2-(4-fluoropyridin-2-yl)cyclopropane-1-carboxamide]: the IC50 is 257 nM. For the compound `CC1(N2CCC(c3cc4cc(NC(=O)C5CC5c5cccnc5)ncc4cc3Cl)CC2)COCC1O` (single isomer, unassigned) [Ex-4.41, N-(7-chloro-6-(1-(4-hydroxy-3-methyltetrahydrofuran-3-yl)piperidin-4-yl)isoquinolin-3-yl)-2-(pyridin-3-yl)cyclopropane-1-carboxamide], the IC50 is 45.7 nM. As to `CC1(N2CCC(c3cc4cc(NC(=O)C5CC5c5cccnc5)ncc4cc3Cl)CC2)COCC1O` (single isomer, unassigned) [Ex-4.42, N-(7-chloro-6-(1-(4-hydroxy-3-methyltetrahydrofuran-3-yl)piperidin-4-yl)isoquinolin-3-yl)-2-(pyridin-3-yl)cyclopropane-1-carboxamide], the IC50 is 200 nM. As for `CC1(N2CCC(c3cc4cc(NC(=O)C5CC5C(F)F)ncc4cc3Cl)CC2)COCC1O` (single isomer, unassigned) [Ex-4.43, N-(7-chloro-6-(1-(4-hydroxy-3-methyltetrahydrofuran-3-yl)piperidin-4-yl)isoquinolin-3-yl)-2-(difluoromethyl)cyclopropane-1-carboxamide], the IC50 was 1.48 nM.

`CC1(N2CCC(c3cc4cc(NC(=O)C5CC5C(F)F)ncc4cc3Cl)CC2)COCC1O` (single isomer, unassigned) [Ex-4.44, N-(7-chloro-6-(1-(4-hydroxy-3-methyltetrahydrofuran-3-yl)piperidin-4-yl)isoquinolin-3-yl)-2-(difluoromethyl)cyclopropane-1-carboxamide]: the IC50 was 0.562 nM. The same measure for `CC1(C)C(C(=O)Nc2cc3cc(C4CCN(C5(C)COCC5O)CC4)c(Cl)cc3cn2)C1c1ccccn1` (single isomer, unassigned) [Ex-4.45, N-(7-chloro-6-(1-(4-hydroxy-3-methyltetrahydrofuran-3-yl)piperidin-4-yl)isoquinolin-3-yl)-2,2-dimethyl-3-(pyridin-2-yl)cyclopropane-1-carboxamide]: 7.08 nM; for `CC1(C)C(C(=O)Nc2cc3cc(C4CCN(C5(C)COCC5O)CC4)c(Cl)cc3cn2)C1c1ccccn1` (single isomer, unassigned) [Ex-4.46, N-(7-chloro-6-(1-(4-hydroxy-3-methyltetrahydrofuran-3-yl)piperidin-4-yl)isoquinolin-3-yl)-2,2-dimethyl-3-(pyridin-2-yl)cyclopropane-1-carboxamide]: 3.55 nM. Take `CC(C)(F)C1CC1C(=O)Nc1cc2cc(C3CCN(C4(C)COCC4O)CC3)c(Cl)cc2cn1` (single isomer, unassigned) [Ex-4.47, N-(7-chloro-6-(1-(4-hydroxy-3-methyltetrahydrofuran-3-yl)piperidin-4-yl)isoquinolin-3-yl)-2-(2-fluoropropan-2-yl)cyclopropane-1-carboxamide]: the IC50 is 2 nM. In the case of `CC(C)(F)C1CC1C(=O)Nc1cc2cc(C3CCN(C4(C)COCC4O)CC3)c(Cl)cc2cn1` (single isomer, unassigned) [Ex-4.48, N-(7-chloro-6-(1-(4-hydroxy-3-methyltetrahydrofuran-3-yl)piperidin-4-yl)isoquinolin-3-yl)-2-(2-fluoropropan-2-yl)cyclopropane-1-carboxamide], the IC50 was 1.26 nM. Consider `CC1C(C(=O)Nc2cc3cc(C4CCN(C5(C)COCC5O)CC4)c(Cl)cc3cn2)C1c1ccccn1` (single isomer, unassigned) [Ex-4.51, N-(7-chloro-6-(1-(4-hydroxy-3-methyltetrahydrofuran-3-yl)piperidin-4-yl)isoquinolin-3-yl)-2-methyl-3-(pyridin-2-yl)cyclopropane-1-carboxamide], for which the IC50 is 83.2 nM. `CC1C(C(=O)Nc2cc3cc(C4CCN(C5(C)COCC5O)CC4)c(Cl)cc3cn2)C1c1ccccn1` (single isomer, unassigned) [Ex-4.52, N-(7-chloro-6-(1-(4-hydroxy-3-methyltetrahydrofuran-3-yl)piperidin-4-yl)isoquinolin-3-yl)-2-methyl-3-(pyridin-2-yl)cyclopropane-1-carboxamide]: the IC50 was 15.1 nM.

On to `CC1C(C(=O)Nc2cc3cc(C4CCN(C5(C)COCC5O)CC4)c(Cl)cc3cn2)C1c1ccccn1` (single isomer, unassigned) [Ex-4.53, N-(7-chloro-6-(1-(4-hydroxy-3-methyltetrahydrofuran-3-yl)piperidin-4-yl)isoquinolin-3-yl)-2-methyl-3-(pyridin-2-yl)cyclopropane-1-carboxamide], for which the IC50 is 3.98 nM.

`CC1C(C(=O)Nc2cc3cc(C4CCN(C5(C)COCC5O)CC4)c(Cl)cc3cn2)C1c1ccccn1` (single isomer, unassigned) [Ex-4.54, N-(7-chloro-6-(1-(4-hydroxy-3-methyltetrahydrofuran-3-yl)piperidin-4-yl)isoquinolin-3-yl)-2-methyl-3-(pyridin-2-yl)cyclopropane-1-carboxamide]: the IC50 was 9.12 nM.

Consider `CCC1C(C(=O)Nc2cc3cc(C4CCN(C5(C)COCC5O)CC4)c(Cl)cc3cn2)C1c1ccccn1` (single isomer, unassigned) [Ex-4.55, N-(7-chloro-6-(1-(4-hydroxy-3-methyltetrahydrofuran-3-yl)piperidin-4-yl)isoquinolin-3-yl)-2-ethyl-3-(pyridin-2-yl)cyclopropane-1-carboxamide], for which the IC50 is 30.9 nM. As to `CCC1C(C(=O)Nc2cc3cc(C4CCN(C5(C)COCC5O)CC4)c(Cl)cc3cn2)C1c1ccccn1` (single isomer, unassigned) [Ex-4.56, N-(7-chloro-6-(1-(4-hydroxy-3-methyltetrahydrofuran-3-yl)piperidin-4-yl)isoquinolin-3-yl)-2-ethyl-3-(pyridin-2-yl)cyclopropane-1-carboxamide], the IC50 was 18.2 nM. With `Cc1ccc(C2CC2C(=O)Nc2cc3cc(C4CCN(C5(C)COCC5O)CC4)c(Cl)cc3cn2)s1` (single isomer, unassigned) [Ex-4.57, N-(7-chloro-6-(1-(4-hydroxy-3-methyltetrahydrofuran-3-yl)piperidin-4-yl)isoquinolin-3-yl)-2-(5-methylthiophen-2-yl)cyclopropane-1-carboxamide], the IC50 is 41.7 nM. For `Cc1ccc(C2CC2C(=O)Nc2cc3cc(C4CCN(C5(C)COCC5O)CC4)c(Cl)cc3cn2)s1` (single isomer, unassigned) [Ex-4.58, N-(7-chloro-6-(1-(4-hydroxy-3-methyltetrahydrofuran-3-yl)piperidin-4-yl)isoquinolin-3-yl)-2-(5-methylthiophen-2-yl)cyclopropane-1-carboxamide], the IC50 was 1.51 nM.

For `CC1(N2CCC(c3cc4cc(NC(=O)C5CC5c5cccs5)ncc4cc3Cl)CC2)COCC1O` (single isomer, unassigned) [Ex-4.59, N-(7-chloro-6-(1-(4-hydroxy-3-methyltetrahydrofuran-3-yl)piperidin-4-yl)isoquinolin-3-yl)-2-(thiophen-2-yl)cyclopropane-1-carboxamide], the IC50 is 129 nM.

Turning to `CC1(N2CCC(c3cc4cc(NC(=O)C5CC5c5cccs5)ncc4cc3Cl)CC2)COCC1O` (single isomer, unassigned) [Ex-4.60, N-(7-chloro-6-(1-(4-hydroxy-3-methyltetrahydrofuran-3-yl)piperidin-4-yl)isoquinolin-3-yl)-2-(thiophen-2-yl)cyclopropane-1-carboxamide], the IC50 was 0.0813 nM.

In the case of `CC(C)Cn1nccc1C1CC1C(=O)Nc1cc2cc(C3CCN(C4(C)COCC4O)CC3)c(Cl)cc2cn1` (single isomer, unassigned) [Ex-4.61, N-(7-chloro-6-(1-(4-hydroxy-3-methyltetrahydrofuran-3-yl)piperidin-4-yl)isoquinolin-3-yl)-2-(1-isobutyl-1H-pyrazol-5-yl)cyclopropane-1-carboxamide], the IC50 was 72.4 nM.
